Source: ChEMBL document CHEMBL1201862, “PubChem BioAssay data set” (2004)
Active and inactive are the calls of the source.

What was measured:
[1] = viability of uninfected HEp-2 cells – cell-based, HTS, cytotoxicity control for RSV inhibitor project, dose response (AID 2410); format: functional; conditions: human respiratory syncytial virus
Coagulation factor XII = target: T1, Coagulation factor XII (Homo sapiens, UniProt P00748); assay: Factor XIIa Dose Response Confirmation from Single Well HTS. [Related pubchem assays (depositor defined):AID701]; format: functional
T1 sequence (P00748 whole entry): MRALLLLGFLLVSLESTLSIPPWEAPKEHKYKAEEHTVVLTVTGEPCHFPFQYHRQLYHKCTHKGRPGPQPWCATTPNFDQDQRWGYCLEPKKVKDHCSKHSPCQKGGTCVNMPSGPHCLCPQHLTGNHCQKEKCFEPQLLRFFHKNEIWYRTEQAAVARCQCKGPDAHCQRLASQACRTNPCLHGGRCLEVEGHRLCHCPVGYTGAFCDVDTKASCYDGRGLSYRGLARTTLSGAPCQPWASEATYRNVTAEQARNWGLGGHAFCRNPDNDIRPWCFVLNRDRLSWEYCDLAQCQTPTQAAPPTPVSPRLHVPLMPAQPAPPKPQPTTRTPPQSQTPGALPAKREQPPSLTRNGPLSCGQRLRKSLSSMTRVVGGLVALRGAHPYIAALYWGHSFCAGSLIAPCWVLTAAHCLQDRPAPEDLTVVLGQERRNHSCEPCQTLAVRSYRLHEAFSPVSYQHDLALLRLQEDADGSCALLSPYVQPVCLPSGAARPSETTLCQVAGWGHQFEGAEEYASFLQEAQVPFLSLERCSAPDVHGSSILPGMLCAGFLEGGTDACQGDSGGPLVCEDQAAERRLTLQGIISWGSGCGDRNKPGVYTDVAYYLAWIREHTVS

Cannabinoid receptor 2 [2] = target: T2, Cannabinoid receptor 2 (Homo sapiens, UniProt P34972); assay: SAR analysis of antagonists of the Cannabinoid Receptor 2 using an Image-Based Assay - Set 2. [Related pubchem assays (depositor defined):AID1961, AID1965]; format: functional
[3] = target: G-protein coupled receptor 55 (Homo sapiens, UniProt Q9Y2T6); assay: SAR analysis of selective Agonists of GPR55 using an Image-Based Assay - Set 2. [Related pubchem assays (depositor defined):AID1961, AID1965]; format: functional
Cannabinoid receptor 2 [4] = target: T2, Cannabinoid receptor 2; assay: SAR analysis of agonists of the Cannabinoid Receptor 2 using an Image-Based Assay - Set 2. [Related pubchem assays (depositor defined):AID1961, AID1965]; format: functional
[5] = target: T3, G-protein coupled receptor 35 (Homo sapiens, UniProt Q9HC97); assay: SAR analysis of Agonists of the GPR35 Receptor using an Image-Based Assay - Set 3. [Related pubchem assays (depositor defined):AID1961, AID1965]; format: functional
Cannabinoid receptor 1 [6] = target: T4, Cannabinoid receptor 1 (Homo sapiens, UniProt P21554); assay: SAR analysis of antagonists of the Cannabinoid Receptor 1 using an Image-Based Assay - Set 3. [Related pubchem assays (depositor defined):AID1961, AID1965]; format: functional
Cannabinoid receptor 1 [7] = target: T4, Cannabinoid receptor 1; assay: SAR analysis of agonists of the Cannabinoid Receptor 1 using an Image-Based Assay - Set 3. [Related pubchem assays (depositor defined):AID1961, AID1965]; format: functional
[8] = target: T3, G-protein coupled receptor 35; assay: SAR analysis of Antagonists of the GPR35 Receptor using an Image-Based Assay - Set 4. [Related pubchem assays (depositor defined):[…]]; format: functional
[9] = Luminescence Cell-Based Dose Retest to Confirm Inhibitors of Cancer Stem Cells. [Related pubchem assays (depositor defined):AID2717, AID2721]; format: functional; conditions: Homo sapiens
[10] = target: DNA damage-inducible transcript 3 protein (Mus musculus, UniProt P35639); format: functional, Cricetulus griseus
X-box-binding protein 1 = X-box-binding protein 1 (Homo sapiens, UniProt P17861); format: functional, Cricetulus griseus;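 further: confirmatory dose-response counter-screen serving a CHOP assay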
Aminopeptidase N = target: T5, Aminopeptidase N (Plasmodium falciparum FcB1/Columbia, UniProt O96935); assay: malaria alanyl aminopeptidase activity blockers – biochemical, fluorogenic H-Leu-NHMec substrate, 1536-well (AID 1445); parameters: species or system Plasmodium falciparum 3D7, 3D7
T5 sequence (O96935 whole entry): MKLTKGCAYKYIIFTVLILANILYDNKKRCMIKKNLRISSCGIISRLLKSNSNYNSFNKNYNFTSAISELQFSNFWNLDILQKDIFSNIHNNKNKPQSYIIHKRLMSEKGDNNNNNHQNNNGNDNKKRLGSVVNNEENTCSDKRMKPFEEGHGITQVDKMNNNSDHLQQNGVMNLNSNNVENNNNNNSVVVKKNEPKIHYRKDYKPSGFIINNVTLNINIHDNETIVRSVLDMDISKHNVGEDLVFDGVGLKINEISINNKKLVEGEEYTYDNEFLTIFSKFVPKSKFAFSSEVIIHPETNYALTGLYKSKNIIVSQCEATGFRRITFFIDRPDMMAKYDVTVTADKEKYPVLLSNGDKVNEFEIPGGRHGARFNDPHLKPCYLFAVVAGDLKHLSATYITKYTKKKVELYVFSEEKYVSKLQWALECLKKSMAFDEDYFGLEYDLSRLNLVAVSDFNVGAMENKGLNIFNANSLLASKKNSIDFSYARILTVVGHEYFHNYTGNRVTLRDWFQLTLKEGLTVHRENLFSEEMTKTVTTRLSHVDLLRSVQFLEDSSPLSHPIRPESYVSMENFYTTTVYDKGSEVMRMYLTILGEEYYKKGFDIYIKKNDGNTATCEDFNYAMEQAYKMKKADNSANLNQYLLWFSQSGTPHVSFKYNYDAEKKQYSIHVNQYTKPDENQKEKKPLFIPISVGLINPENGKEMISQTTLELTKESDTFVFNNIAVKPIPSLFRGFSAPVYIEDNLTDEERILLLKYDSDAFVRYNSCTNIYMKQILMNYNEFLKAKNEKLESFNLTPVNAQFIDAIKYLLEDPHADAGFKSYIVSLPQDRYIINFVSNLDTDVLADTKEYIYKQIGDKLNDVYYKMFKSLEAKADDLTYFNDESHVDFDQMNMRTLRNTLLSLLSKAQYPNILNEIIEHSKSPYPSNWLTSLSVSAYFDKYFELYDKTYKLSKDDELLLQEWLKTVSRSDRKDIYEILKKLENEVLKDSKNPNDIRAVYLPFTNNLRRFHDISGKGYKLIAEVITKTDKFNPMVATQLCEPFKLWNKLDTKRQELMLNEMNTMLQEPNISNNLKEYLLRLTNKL

Bcl-2-like protein 10 = target: T6, Bcl-2-like protein 10 (Homo sapiens, UniProt Q9HD36); assay: Bcl-B/TR3 peptide binding disruption – biochemical, fluorescence polarization, FITC-TR3 peptide, selectivity assay for Bfl-1 inhibitor project, primary screen (AID 748);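 further: fluorescence polarization from a fluorescein-labelled TR3 peptide binding purified Bcl-B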
T6 sequence (Q9HD36 whole entry): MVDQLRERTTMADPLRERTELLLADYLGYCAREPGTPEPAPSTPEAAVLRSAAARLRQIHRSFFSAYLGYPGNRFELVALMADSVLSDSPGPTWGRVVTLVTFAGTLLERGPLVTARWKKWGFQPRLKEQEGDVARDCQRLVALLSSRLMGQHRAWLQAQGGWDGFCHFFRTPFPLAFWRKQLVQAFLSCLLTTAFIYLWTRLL

[11] = viability of PTEN-deleted HCT116 cells – cell-based, HCT116 PTEN knockout, dose response (AID 1047); format: functional;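 further: HCT116 colon tumor cells with PTEN knocked out; cells exposed to compound for 60 hours before readout; potency for loss of cell viability measured by luminescence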
[12] = viability of HCT116 lacking mutant beta-catenin – cell-based, human colon tumor, dose response (AID 1045); format: functional;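 further: HCT116 colon tumor cells with beta catenin knocked out; cells exposed to compound for 60 hours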
[13] = Intein inhibitors as potential Tuberculosis drugs, a cytotoxicity screen. [Related pubchem assays (depositor defined):AID2221, AID2223, AID434968, AID435010, AID449749, AID449750, AID489010]; format: functional
[14] = target: T7, Replicative DNA helicase DnaB (Mycobacterium tuberculosis, UniProt P9WMR3); assay: DnaB intein splicing inhibitors, dose response, biochemical, cell-free fluorescence (AID 449749); format: functional
T7 sequence (P9WMR3 whole entry): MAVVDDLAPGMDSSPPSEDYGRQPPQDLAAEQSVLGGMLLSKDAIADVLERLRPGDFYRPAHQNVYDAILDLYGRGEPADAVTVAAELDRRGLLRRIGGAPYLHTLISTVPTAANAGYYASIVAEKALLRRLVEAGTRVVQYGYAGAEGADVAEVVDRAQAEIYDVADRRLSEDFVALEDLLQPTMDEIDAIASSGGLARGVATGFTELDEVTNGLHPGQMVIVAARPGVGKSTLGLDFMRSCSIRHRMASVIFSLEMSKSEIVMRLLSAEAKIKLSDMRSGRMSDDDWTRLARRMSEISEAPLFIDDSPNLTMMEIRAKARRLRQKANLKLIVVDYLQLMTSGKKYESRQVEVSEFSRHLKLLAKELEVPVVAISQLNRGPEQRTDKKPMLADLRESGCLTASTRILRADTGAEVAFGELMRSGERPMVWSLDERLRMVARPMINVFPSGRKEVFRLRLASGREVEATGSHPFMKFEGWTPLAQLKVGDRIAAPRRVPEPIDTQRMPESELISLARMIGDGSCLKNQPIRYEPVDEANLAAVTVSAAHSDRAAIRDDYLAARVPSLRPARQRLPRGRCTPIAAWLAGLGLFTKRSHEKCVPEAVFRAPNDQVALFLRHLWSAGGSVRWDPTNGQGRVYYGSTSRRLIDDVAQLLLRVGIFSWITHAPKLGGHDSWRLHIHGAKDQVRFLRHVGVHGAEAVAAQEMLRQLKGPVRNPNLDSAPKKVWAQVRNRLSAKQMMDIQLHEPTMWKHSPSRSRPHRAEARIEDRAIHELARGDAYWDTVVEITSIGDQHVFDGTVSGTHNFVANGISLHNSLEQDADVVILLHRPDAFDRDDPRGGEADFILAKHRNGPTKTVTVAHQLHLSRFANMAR

Protein RecA = target: T8, Protein RecA (Mycobacterium tuberculosis, UniProt P9WHJ3); assay: Fluorescence Cell-Free Homogeneous Dose Retest to Identify Inhibitors of RecA-Intein Splicing Activity. [Related pubchem assays (depositor defined):AID2097, AID2223, AID489010, AID492950]; format: functional
T8 sequence (P9WHJ3 whole entry): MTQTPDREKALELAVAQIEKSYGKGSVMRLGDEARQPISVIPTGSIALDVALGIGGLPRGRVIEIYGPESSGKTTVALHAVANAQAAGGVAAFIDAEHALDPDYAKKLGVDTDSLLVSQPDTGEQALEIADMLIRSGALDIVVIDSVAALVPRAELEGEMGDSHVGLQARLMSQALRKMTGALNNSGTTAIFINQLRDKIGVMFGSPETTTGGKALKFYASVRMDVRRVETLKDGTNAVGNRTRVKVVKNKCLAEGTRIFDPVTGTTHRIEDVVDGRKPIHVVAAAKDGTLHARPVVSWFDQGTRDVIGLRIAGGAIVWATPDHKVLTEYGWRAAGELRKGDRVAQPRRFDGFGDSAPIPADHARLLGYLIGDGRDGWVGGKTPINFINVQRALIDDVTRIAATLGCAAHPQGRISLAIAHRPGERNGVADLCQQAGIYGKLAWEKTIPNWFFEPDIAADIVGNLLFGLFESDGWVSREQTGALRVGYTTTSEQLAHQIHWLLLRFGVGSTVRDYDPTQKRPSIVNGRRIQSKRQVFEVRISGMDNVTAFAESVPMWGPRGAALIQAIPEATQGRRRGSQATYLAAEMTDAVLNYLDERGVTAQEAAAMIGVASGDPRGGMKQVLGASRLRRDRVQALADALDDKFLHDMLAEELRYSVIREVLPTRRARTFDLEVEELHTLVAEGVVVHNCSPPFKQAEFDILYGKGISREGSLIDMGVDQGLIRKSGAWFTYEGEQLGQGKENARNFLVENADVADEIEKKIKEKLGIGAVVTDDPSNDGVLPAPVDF

T3 sequence (Q9HC97 whole entry): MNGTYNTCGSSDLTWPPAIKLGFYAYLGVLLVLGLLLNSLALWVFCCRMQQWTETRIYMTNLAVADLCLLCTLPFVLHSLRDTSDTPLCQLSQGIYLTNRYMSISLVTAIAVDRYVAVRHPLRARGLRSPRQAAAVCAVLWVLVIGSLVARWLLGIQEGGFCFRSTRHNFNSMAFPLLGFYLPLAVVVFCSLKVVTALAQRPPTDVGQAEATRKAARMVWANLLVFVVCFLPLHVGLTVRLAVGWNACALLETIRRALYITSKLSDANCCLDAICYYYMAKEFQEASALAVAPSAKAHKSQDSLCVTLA
T4 sequence (P21554 whole entry): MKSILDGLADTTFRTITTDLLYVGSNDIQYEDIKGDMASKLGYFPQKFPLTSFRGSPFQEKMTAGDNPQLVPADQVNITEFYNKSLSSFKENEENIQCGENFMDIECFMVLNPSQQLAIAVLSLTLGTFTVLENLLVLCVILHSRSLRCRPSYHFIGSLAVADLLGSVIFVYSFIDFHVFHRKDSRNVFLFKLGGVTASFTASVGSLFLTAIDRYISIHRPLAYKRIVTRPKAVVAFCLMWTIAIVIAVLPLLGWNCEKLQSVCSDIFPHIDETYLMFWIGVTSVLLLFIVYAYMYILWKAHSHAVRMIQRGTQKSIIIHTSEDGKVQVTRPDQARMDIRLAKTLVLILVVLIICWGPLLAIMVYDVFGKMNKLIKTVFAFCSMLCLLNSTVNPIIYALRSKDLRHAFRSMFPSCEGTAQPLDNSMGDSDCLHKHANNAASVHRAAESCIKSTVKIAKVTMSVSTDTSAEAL
T2 sequence (P34972 whole entry): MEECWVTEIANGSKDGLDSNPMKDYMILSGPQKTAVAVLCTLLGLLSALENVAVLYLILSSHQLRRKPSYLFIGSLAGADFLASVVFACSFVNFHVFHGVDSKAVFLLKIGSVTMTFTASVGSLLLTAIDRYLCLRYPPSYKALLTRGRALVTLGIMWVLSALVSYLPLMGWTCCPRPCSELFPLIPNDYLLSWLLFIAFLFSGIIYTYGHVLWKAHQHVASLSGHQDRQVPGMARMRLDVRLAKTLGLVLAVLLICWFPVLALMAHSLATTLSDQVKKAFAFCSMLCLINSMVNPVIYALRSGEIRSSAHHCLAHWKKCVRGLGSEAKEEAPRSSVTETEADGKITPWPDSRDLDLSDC
G-protein coupled receptor 55, sequence (Q9Y2T6 whole entry): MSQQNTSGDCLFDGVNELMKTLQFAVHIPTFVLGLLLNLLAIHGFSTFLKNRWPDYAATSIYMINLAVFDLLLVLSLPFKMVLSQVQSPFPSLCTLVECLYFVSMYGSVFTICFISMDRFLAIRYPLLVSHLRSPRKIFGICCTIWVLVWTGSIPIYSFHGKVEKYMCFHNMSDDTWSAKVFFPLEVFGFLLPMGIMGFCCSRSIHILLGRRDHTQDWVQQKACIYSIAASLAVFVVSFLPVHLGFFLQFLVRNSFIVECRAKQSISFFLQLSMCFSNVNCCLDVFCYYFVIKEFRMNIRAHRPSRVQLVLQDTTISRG
DNA damage-inducible transcript 3 protein, sequence (P35639 whole entry): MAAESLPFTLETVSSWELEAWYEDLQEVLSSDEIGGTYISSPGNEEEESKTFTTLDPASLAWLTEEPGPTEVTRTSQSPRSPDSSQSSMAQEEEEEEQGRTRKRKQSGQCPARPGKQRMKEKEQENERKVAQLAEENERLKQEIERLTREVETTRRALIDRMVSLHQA
X-box-binding protein 1, sequence (P17861 whole entry): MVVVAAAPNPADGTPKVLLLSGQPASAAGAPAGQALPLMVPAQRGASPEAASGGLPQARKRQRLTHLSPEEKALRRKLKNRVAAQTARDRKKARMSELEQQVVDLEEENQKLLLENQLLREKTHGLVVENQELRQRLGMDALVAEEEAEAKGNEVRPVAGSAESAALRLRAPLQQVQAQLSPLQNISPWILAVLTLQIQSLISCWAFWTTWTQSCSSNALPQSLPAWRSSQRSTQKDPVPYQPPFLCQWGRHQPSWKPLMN

For `Cc1ccc(-c2cc(-c3ccccc3)c3c(N)c(S(C)(=O)=O)sc3n2)cc1`, the CC50 [1] was 48.4 µM (active) and the IC50 (Coagulation factor XII) was > 50 µM (inactive).

With `Cc1ccc2cc(C)c3nnc(SCC(=O)N(C)c4nc(-c5ccccc5)cs4)n3c2c1` the IC50 (Cannabinoid receptor 2 [2]) was > 32 µM (inactive), the EC50 [3] was > 32 µM (inactive) and the EC50 (Cannabinoid receptor 2 [4]) was > 32 µM (inactive). For the same compound, the EC50 [5] was > 32 µM (inactive), the IC50 (Cannabinoid receptor 1 [6]) was 4.44 µM (active) and the EC50 (Cannabinoid receptor 1 [7]) was > 32 µM (inactive). The IC50 [8] was > 32 µM (inactive).

With `CCCc1ccc(O)c(/N=C/c2cc(Br)cc(OCC)c2O)c1` the AC50 [9] was 9.69 µM (active), the “Absolute IC50 (CHOP)” value [10] was 10 µM and the “Absolute IC50 (XBP1)” value (X-box-binding protein 1) was 10 µM.

For `Cc1ccc(O)c(/N=C/C2=C(O)c3ccccc3C2=O)c1`, the IC50 (Aminopeptidase N) was 71.9 µM (active), the IC50 (Bcl-2-like protein 10) was 44.7 µM (active) and the EC50 [11] was 32 µM (active). The EC50 [12] was 22.2 µM (active), the CC50 [13] was > 40 µM (active) and the AC50 [14] was 0.4 µM (active). For the same compound, the EC50 (Protein RecA) was 0.216 µM (active).
